Converted amounts (≈) assume the structure as drawn. “And” between values parts separate entries of the source, which are not always exact repeats. Equal values may be shown once. Read-outs that look alike come from different tables or passages of the source.
Legend:
β-adrenergic receptor = experiment: β-blocking activity and recovery from β-blockade in anesthetized dogs (isoproterenol heart rate response, 3-hour infusion); format: in vivo; settings: for Potency: 3-hour infusion, rate adjusted to about 50% isoproterenol inhibition, pentobarbital-anesthetized dogs; for Recovery Time 50%: 50% recovery from β-blockade after termination of infusion; for % I (percent inhibition of heart rate response to isoproterenol): end of 3-hour infusion, isoproterenol 0.5 μg/kg
Method: The duration of β-blockade was determined in vivo using pentobarbital-anesthetized dogs instrumented for measurement of heart rate using a Beckman cardiotachometer triggered electronically by a phasic aortic blood pressure signal. Both vagus nerves were severed in the cervical region and the animals were mechanically ventilated. The experimental design used employed a 3-hour infusion of test compound. Bolus doses of isoproterenol (0.5 μg/kg) were used to assess the degree of β-blockade and recovery from β-blockade after […] of the infusion. The doses were spaced at 10-minute intervals and were given before, during and following the infusion of test compounds. The infusion rate was adjusted so that at the end of the 3-hour infusion period the degree of isoproterenol inhibition averaged about 50% of control.

pKa = format: physicochemical
[1] = Shelf life / storage stability of solutions; format: physicochemical; settings: within a week; room temperature; without stabilization; read-out: potency loss
[2] = Kinetic degradation study in solution at 75° C.; format: physicochemical
Method: In order to determine the pH at which the formulation would show maximum stability, a kinetic degradation study was employed. pH of solutions ranging from 2-4, containing 0.1M each of the compound of formula II and tartrate buffer were stored at 75° C. At various time intervals, samples were taken and assayed for the compound.
The kinetic data obtained was plotted as a log of drug concentration versus time. The apparent first-order rate constants were calculated from the slopes of the linear regression lines fitted to log (C)=log (Co)[…] where C is drug concentration at time t, Co is the initial drug concentration and k is the apparent first-order rate constant.
The logarithm of the potency versus time in all cases produced linear plots. The apparent first-order rate constants were calculated from the slopes of the linear regression lines (not shown) and are presented in FIG. 1.
The ratio of the two organic vehicles, namely propylene glycol and alcohol were determined by making solutions of the compound of formula II in the vehicle and testing the stability at 75° C. Samples were removed after specified times and measured for potency.
FIG. 3 illustrates the stability of the compound of formula II in hydroalcoholic solution buffered at pH 3 by sodium tartrate. An identical stability study was conducted with a solution without buffering agent (FIG. 4).

[3] = Solubility in various vehicles (HPLC); format: physicochemical
Method: Initially, the solubility of the compound was determined in various vehicles. The amount dissolved was measured by HPLC (Table 2). […] Based on this acidic nature, a tartrate buffer was selected. It was foun that the molar ratio of active β-blocking agent to buffer was critical, 1:1 to 3:1 to stabilized product.
Samples were dissolved or diluted with the mobile phase, methanol--pH 3.4 phosphate buffer solution. The resulting solutions were diluted with benzoic acid internal standard solution and chromatographed on a octadecyl silane column with detection at 229 nm. […] The method is linear, quantitative, rugged and reproducible with a sensitivity of 2 ug/ml. Either peak height or peak area ratios can be used for quantitation.

[4] = Comparison of degradation in aqueous solution and in the formulation (forced degradation, HPLC); format: physicochemical; settings: 75° C.; for degraded at 168 h: one week
Method: The sulfate salt of the compound of Formula II in aqueous solution when stored at 75° C. degraded about 70% in one week. In contrast, when formulated in the pharmaceutical composition as noted and placed under the same storage conditions, it degraded only about 25%.
The results of this comparison are represented in FIG. 5. Samples for the study were prepared and tested as follows:
b. Aqueous at 75° C.--10 mg of sulfate salt of Formula II were dissolved in 100 mL of deionized water. A 2 mL portion of this solution was transferred to a vial and placed in a 75° C. oven. A series of vials were prepared and evaluated at various intervals. Each time 2 mL of mobile phase was added to the vial (final conc. 50 μg/mL) for subsequent HPLC evaluation. The results are plotted as curve B in FIG. 5.
c. Forced Degradation of the Formulation was carried out using a solution containing the sulfate salt of Formula II, 100 mg/mL, in Acetate Buffer (0.35M) containing 20% of Propylene Glycol:Ethanol (50:50) having a pH 3.17. The formulation solution was divided into 2 parts, placed in 55° C. and 75° C. ovens and tested periodically. To evaluate the formulation, the solution was diluted 1 mL to 100 mL of mobile phase, then 5 mL to 100 mL in mobile phase (final conc.--50 μg/mL) for subsequent HPLC evaluation.
The rates of decomposition were monitored by HPLC and compared to the respective initial concentrations at 220 nm. In order to insure that the peak was that of the sulfate salt and not an impurity, excipient or product of decomposition, the peak was scanned using a variable wavelength detector ([…]). Using the Perkin-Elmer LC-75 Detector Stop Flow System described below:
A 70 μL portion of the sulfate salt degraded samples were injected manually into the HPLC L-75 equipped with a variable wavelength detector, programmed to scan wavelengths from 200 to 320 nm. When the sulfate salt reached the detector cell, the flow of mobile phase was stopped and the scan initiated from 200 to 320 nm. In this manner, only the peak corresponding to the sulfate salt was measured.

With CC(C)(CNC(=O)C1CCCCC1)NCC(O)COC(=O)c1ccccc1F (centres unmarked) [Compound 7] as the compound, how does the Potency (β-adrenergic receptor) read?
Its Potency is 1.8 mg/kg/180 min.

What about the “Recovery Time 50%” value (β-adrenergic receptor; dogs) of the same compound?
Its value is 8 min.

And the “Recovery Time 80%” value (β-adrenergic receptor; 80% recovery from β-blockade after termination of infusion, dogs)?
Its value is 19 min.

What about the “% I (percent inhibition of heart rate response to isoproterenol)” value (β-adrenergic receptor; dogs) of the same compound?
Its value is 68%.

For CC(C)(CNC(=O)C1CCCCC1)NCC(O)COC(=O)c1ccccc1F (centres unmarked) [Compound 6], which Potency (β-adrenergic receptor) is on record?
Its Potency is 1.4 mg/kg/180 min.

Which results are given for CC(C)(CNC(N)=O)NCC(O)COC(=O)c1ccccc1F (centres unmarked) [compound of formula II, N-(1,1-Dimethyl-2-ureidoethyl)-2-hydroxy-3-(O-fluorobenzoyloxy) propylamine]?
pKa (pKa): 8.17; degraded at 168 h [1]: 10%; propylene glycol to alcohol ratio and degradation ([2]; FIG. 2): 1:1 ratio of the two substances minimizes degradation; rate of degradation (slope) ([2]; hydroalcoholic solution (15% propylene glycol, 15% alcohol) buffered at pH 3 by sodium tartrate): 0.0387 day⁻¹; rate of degradation (slope) ([2]; hydroalcoholic solution (15% propylene glycol, 15% alcohol), unbuffered): 0.0709 day⁻¹; stability of buffered relative to unbuffered preparation ([2]; pH 3 sodium tartrate vs no buffer): approximately twice as stable

For CC(C)NCC(O)COc1cccc2ccccc12 (centres unmarked) [Propranolol, reference compound], which Potency (β-adrenergic receptor) is on record?
The Potency was 0.2 mg/kg/180 min.

What about the “% I (percent inhibition of heart rate response to isoproterenol)” value (β-adrenergic receptor; dogs) of the same compound?
The value was 67 ± 6%.

For CC(C)(CNC(N)=O)NCC(O)COC(=O)c1ccccc1F (centres unmarked) [Compound 17], which Potency (β-adrenergic receptor) is on record?
The Potency was 0.7 mg/kg/180 min.

Which Potency (β-adrenergic receptor) does the source give for CC(C)C(=O)NCC(C)(C)NCC(O)COC(=O)c1ccccc1F (centres unmarked) [Compound 5] here?
The Potency was 0.6 mg/kg/180 min.

With CC(C)(CNC(=O)N1CCOCC1)NCC(O)COC(=O)c1ccc(O)c(O)c1 (centres unmarked) [Compound 12] as the compound, how does the Potency (β-adrenergic receptor) read?
Its Potency is 0.08 mg/kg/180 min.

With CC(C)(CNC(N)=O)NCC(O)COC(=O)c1ccccc1F (centres unmarked) as the compound, how does the Solubility ([3]; Alcohol USP (EtOH)) read?
Its Solubility is 2.24 % w/w.

And the Solubility ([3]; Polyethylene Glycol 200 USP (PEG))?
Its Solubility is 2.64 % w/w.

What about the Solubility ([3]; Propylene Glycol USP (PG)) of the same compound?
The Solubility was 3.47 % w/w.

What about the Solubility ([3]; WFI (5%), EtOH (45%), PEG (50%)) of the same compound?
The Solubility was 5.21 % w/w.

What about the Solubility ([3]; WFI (5%), EtOH (45%), PG (50%)) of the same compound?
The Solubility was 7.20 % w/w.

What about the Solubility ([3]; WFI (5%), EtOH (95%)) of the same compound?
The Solubility was 7.50 % w/w.

And the Solubility ([3]; WFI (5%), PEG (95%))?
Its Solubility is 3.83 % w/w.

And the Solubility ([3]; WFI (5%), PG (95%), read-out: Solubility)?
The Solubility was 56 mg/mL (≈ 171 mM).

And the Solubility ([3]; Water for Injection USP (WFI), read-out: Solubility)?
The Solubility was 507 mg/mL (≈ 1550 mM).

And the degraded at 168 h ([4]; formulated in the pharmaceutical composition)?
Its degraded at 168 h is roughly 25%.

And the increase in stability ([4]; formulated vs aqueous solution)?
Its increase in stability is “three fold increase in stability”.

What about the degraded at 168 h ([4]; aqueous solution (deionized water), aqueous solution) of the same compound?
The degraded at 168 h was roughly 70%.

Which Potency (β-adrenergic receptor) does the source give for CC(=O)NCC(C)(C)NCC(O)COC(=O)c1ccccc1F (centres unmarked) [Compound 4] here?
Its Potency is 2.7 mg/kg/180 min.

For CCOC(=O)NCC(C)(C)NCC(O)COC(=O)c1ccccc1F (centres unmarked) [Compound 21], which Potency (β-adrenergic receptor) is on record?
The Potency was 6.5 ± 1.8 mg/kg/180 min.

What does the source list for O=C(CC1CCCCC1)NCCNCC(O)COC(=O)c1ccccc1F (centres unmarked) [Compound 8]?
Recovery Time 50% (β-adrenergic receptor; dogs): 3,4 min; % I (percent inhibition of heart rate response to isoproterenol) (β-adrenergic receptor; dogs): 43% and 55%

Source: US4579867A, “Stable pharmaceutical compositions of short-acting β-adrenergic receptor blocking agents” (American Hospital Supply Corporation, priority 1984, dated 1986)
